This passage reports IC50 results from US10047073B2, “Histone deacetylase inhibitors and compositions and methods of use thereof” (CHDI Foundation, Inc., priority 2015, dated 2018).

For assay [1], the target named is human catalytic domain HDAC4 protein (Homo sapiens (Human), UniProt P56524). Description: Inhibition of HDAC4 catalytic domain, Boc-Lys(TFA)-AMC fluorogenic substrate. The following applies: read-out: HDAC4 Biochemical IC50. The text has this:
Example 13: Analysis of Inhibition of HDAC4 with Class IIa Histone Deacetylase (HDAC) Inhibitors
The potency of Class IIa Histone Deacetylase (HDAC) inhibitors was quantified by measuring the Histone Deacetylase 4 (HDAC4) catalytic domain enzymatic activity using the fluorogenic substrate, Boc-Lys(TFA)-AMC. The substrate was deacetylated to Boc-Lys-AMC by HDAC4. […] The fluorescence of the sample was directly related to the histone deacetylase activity in the sample.
Serial dilutions of the HDAC inhibitors and control reference compound (1-(5-(3-((4-(1,3,4-oxadiazol-2-yl)phenoxy)methyl)-1,2,4-oxadiazol-5-yl)thiophen-2-yl)-2,2,2-trifluoroethanone) were made by first resuspending the lyophilized compound to a final concentration of 10 mM in 100% dimethyl sulfoxide (DMSO). Stocks of 60 μL aliquots of the 10 mM compound in DMSO were prepared and stored at −20° C. From one stock aliquot of each tested compound and the reference compound, a 16-point serial dilution was prepared according to Table 1 using a 125 μL 16-channel Matrix multi-channel pipette (Matrix Technologies Ltd).
2 μL (200×) of each diluted solution and each control (full activity: 100% DMSO alone or full inhibition 1 mM) was stamped into V-bottomed polypropylene 384-well compound plates using either the Bravo (384-well head from Agilent) or 12.5 μL 16-channel Matrix multi-channel pipette (Matrix Technologies Ltd). Each well with the 200× compound solution was diluted 1:20 by the addition of 38 μL assay buffer+DMSO (10.5% DMSO, 45 mM Tris-HCl, 123 mM NaCl, 2.4 mM KCl, and 0.9 mM MgCl2 at pH 8.0 and equilibrated to r.t.).
The HDAC4 catalytic domain enzyme was human catalytic domain HDAC4 protein (amino acids 648-1032) with a C-terminal 6× histidine tag, produced by BioFocus. A working solution of enzyme was prepared from a 500 μg/mL stock aliquot of HDAC4 catalytic domain (thawed on ice) diluted to 0.2 μg/mL with assay buffer (50 mM Tris-HCl, 137 mM NaCl, 2.7 mM KCl, and 1 mM MgCl2 at pH 8 and equilibrated to r.t.) just prior to the addition of the enzyme to the assay.
5× (50 μM) substrate was prepared just prior to the addition to the assay. A 1 mM substrate stock was made by diluting a 100 mM Boc-Lys(TFA)-AMC in DMSO solution 1:100 by adding it drop-wise to assay buffer (equilibrated to r.t.) while vortexing at slow speed to prevent precipitation. The 5× substrate was prepared by diluting the 1 mM substrate solution 1:20 by adding it drop-wise to assay buffer (equilibrated to r.t.) while vortexing at slow speed to prevent precipitation.
3× (30 μM) Developer/Stop Solution was prepared just prior to addition to the plate by diluting a stock solution of 10 mM reference compound 1:333 in 25 mg/mL trypsin (PAA Laboratories Ltd.) equilibrated to r.t.
5 μL of each solution of 1:20 diluted compound from above was transferred to a clear bottomed, black, 384-well assay plate using the Bravo or the Janus (384-well MDT head from Perkin Elmer). Using a 16-channel Matrix multi-channel pipette, 35 μL of the working solution of HDAC4 catalytic domain enzyme (0.2 μg/mL in assay buffer) was transferred to the assay plate. The assay was then started by adding 10 μL of 5× (50 μM) substrate to the assay plates using either the Bravo, Janus or 16-channel Matrix multi-channel pipette. The assay plate was then shaken for two minutes on an orbital shaker at 900 rpm (rotations per minute). Next the plate was incubated for 15 minutes at 37° C. The reaction was stopped by adding 25 μL of 3× (30 μM) developer/stop solution to the assay plates using either the Bravo, Janus or a 16-channel Matrix multi-channel pipette. Assay plates were then shaken for 5 minutes on an orbital shaker at 1200 rpm. Next, the assay plates were incubated at 37° C. for 1 hour in a tissue culture incubator. Finally, the fluorescence was measured (Excitation: 355 nm, Emission: 460 nm) using PerkinElmer EnVision in top read mode.

In assay [2] the test system is cellular Class IIa HDAC activity in Jurkat E6-1 cells. The experiment in a line: Inhibition of cellular Class IIa HDAC activity, Cell (Lys-TFA) substrate. In kind it is cell-based. The conditions noted are these: Homo sapiens, Jurkat E6.1, Jurkat E6.1 cells, Boc-Lys(TFA)-AMC. From the text: Example 17: Analysis of Inhibition of Cellular Class IIa HDAC Activity with Class IIa Histone Deacetylase (HDAC) Inhibitors: Cell (Lys-TFA) Substrate
The potency of Class IIa Histone Deacetylase (HDAC) inhibitors was quantified by measuring the cellular histone deacetylase enzymatic activity using the fluorogenic substrate, Boc-Lys(TFA)-AMC. After penetration in Jurkat E6-1 cells, the substrate was deacetylated to Boc-Lys-AMC. After cell lysis and cleavage by trypsin, the fluorophore AMC was released from the deacetylated substrate only. The fluorescence of the sample was directly related to the histone deacetylase activity in the sample.
Jurkat E6.1 cells were cultured according to standard cell culture protocols in Jurkat E6.1 Growth Media (RPMI without phenol red, 10% FBS, 10 mM HEPES, and 1 mM Sodium Pyruvate). Jurkat E6.1 cells were counted using a Coulter Counter and resuspended in Jurkat E6.1 growth media at a concentration of 75,000 cells/35 μL. 35 μL or 75,000 cells was seeded into Greiner microtitre assay plates. The plates were then incubated at 37° C. and 5% CO2 while other assay components were being prepared.
Serial dilutions of the HDAC inhibitors and control reference compound (1-(5-(3-((4-(1,3,4-oxadiazol-2-yl)phenoxy)methyl)-1,2,4-oxadiazol-5-yl)thiophen-2-yl)-2,2,2-trifluoroethanone) were made by first resuspending the lyophilized compound to a final concentration of 10 mM in 100% DMSO. Stocks of […] aliquots of the 10 mM compound in DMSO were prepared and stored at −20° C. From one stock aliquot of each tested compound and the reference compound, a 16-point serial dilution was prepared according to Table 1 using a 125 μL 16-channel Matrix multi-channel pipette.
2 μL (200×) of each diluted solution and each control (full activity: 100% DMSO alone or full inhibition 1 mM) was stamped into V-bottom polypropylene 384-well compound plates using either the Bravo, Janus, or 12.5 μL 16-channel Matrix multi-channel pipette. Each well with the 200× compound solution was diluted 1:20 by the addition of 38 μL Jurkat assay buffer+DMSO (9.5% DMSO, RPMI without phenol red, 0.09% FBS, 9 mM Hepes, and 0.9 mM Sodium Pyruvate equilibrated to r.t.)
5× (500 μM) substrate was prepared just prior to the addition to the assay. The 5× substrate was prepared by diluting a 100 mM Boc-Lys(TFA)-AMC in DMSO solution 1:200 by adding it drop-wise to Jurkat assay medium (RPMI without phenol red, 0.1% FBS, 10 mM Hepes, and 1 mM Sodium Pyruvate equilibrated to 37° C.) while vortexing at slow speed to prevent precipitation.
10 mL of 3× lysis buffer was prepared with 8.8 mL of 3× stock lysis buffer (50 mM Tris-HCl, pH 8.0, 137 mM NaCl, 2.7 mM KCl, 1 mM MgCl2, 1% Nonidet P40 Substitute equilibrated to r.t.) and 1.2 mL of 3 mg/mL Trypsin equilibrated to r.t.
5 μL of each solution of 1:20 diluted compound from above was transferred to the Greiner microtitre assay plates with 75,000 cells/well using the Bravo. Cells were then incubated for 2 hours at 37° C. and 5% CO2. The assay was then started by adding 10 μL of 5× (500 μM) substrate to the assay plate using either the Bravo or 16-channel Matrix multi-channel pipette. The cells were then incubated for 3 hours at 37° C. and 5% CO2. Next, 25 μL of 3× lysis buffer was added to each well using either the 125 μL 16 channel pipette or the Bravo. The assay plate was then incubated overnight (15-16 hours) at 37° C. and 5% CO2. The following day, the plates were shaken on an orbital shaker for 1 minute at 900 rpm. Finally the top read fluorescence (Excitation: 355 nm, Emission: 460 nm) was measured using PerkinElmer EnVision.

Assay [3] concerns cellular Class I HDAC activity in Jurkat E6-1 cells. The experiment in a line: Inhibition of cellular Class I HDAC activity, Cell (Lys-Ac) substrate. The following applies: Homo sapiens, Jurkat E6.1, Jurkat E6.1 cells, Boc-Lys(Ac)-AMC. In kind it is cell-based. How it is done: Example 18: Analysis of Inhibition of Cellular Class I HDAC Activity with Class IIa Histone Deacetylase (HDAC) Inhibitors: Cell (Lys-Ac) Substrate
The Class I HDAC activity of Class IIa Histone Deacetylase (HDAC) inhibitors was quantified by measuring the cellular histone deacetylase enzymatic activity using the fluorogenic substrate, Boc-Lys(Ac)-AMC. This was performed according to the procedure in Example 17, using Boc-Lys(Ac)-AMC substrate in place of Boc-Lys(TFA)-AMC.

human catalytic domain HDAC4 protein, sequence (P56524 648-1032): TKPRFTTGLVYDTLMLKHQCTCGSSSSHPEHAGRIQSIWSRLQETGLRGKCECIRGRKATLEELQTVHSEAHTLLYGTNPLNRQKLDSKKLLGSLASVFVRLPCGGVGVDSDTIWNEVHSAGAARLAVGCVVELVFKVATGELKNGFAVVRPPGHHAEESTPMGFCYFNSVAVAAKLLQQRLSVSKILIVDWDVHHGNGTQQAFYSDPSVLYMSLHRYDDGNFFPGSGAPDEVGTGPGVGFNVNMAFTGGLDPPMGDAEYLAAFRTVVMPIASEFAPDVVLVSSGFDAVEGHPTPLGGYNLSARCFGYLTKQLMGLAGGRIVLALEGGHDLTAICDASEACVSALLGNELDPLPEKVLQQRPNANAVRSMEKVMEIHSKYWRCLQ

On to `CC1(C)CCCN(CC2(NC(=O)c3ccc(-c4noc(C(F)(F)F)n4)c(F)c3)CC2)C1` [Example 12, N-(1-((3,3-Dimethylpiperidin-1-yl)methyl)cyclopropyl)-3-fluoro-4-(5-(trifluoromethyl)-1,2,4-oxadiazol-3-yl)benzamide], for which the concentration for half-maximal inhibition (IC50) in assay [1] was 76 nM; in assay [2], 312 nM; in assay [3], 15100 nM.
